Test results from ChEMBL document CHEMBL1909046, “DrugMatrix in vitro pharmacology data”.

Legend:
[1] = molecular target: T1, Type-2 angiotensin II receptor (Homo sapiens, UniProt P50052); format: cell-based; conditions: cho-k1; also: in other assays of this panel Not Active means under 50% inhibition at 10 µM
T1 sequence (P50052 whole entry): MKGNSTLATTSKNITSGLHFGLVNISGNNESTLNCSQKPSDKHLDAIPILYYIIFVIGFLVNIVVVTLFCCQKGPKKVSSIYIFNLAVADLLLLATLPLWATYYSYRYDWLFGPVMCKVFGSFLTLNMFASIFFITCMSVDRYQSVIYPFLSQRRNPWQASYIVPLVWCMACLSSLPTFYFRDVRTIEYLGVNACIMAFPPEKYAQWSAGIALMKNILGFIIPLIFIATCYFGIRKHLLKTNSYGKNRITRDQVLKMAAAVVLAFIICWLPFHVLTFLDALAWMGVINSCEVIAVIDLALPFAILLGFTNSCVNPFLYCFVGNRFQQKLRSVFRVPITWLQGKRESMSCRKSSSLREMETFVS

[2] = molecular target: Platelet-activating factor receptor (Homo sapiens, UniProt P25105); format: tissue-based; also: in other assays of this panel Not Active means under 50% inhibition at 10 µM
B2 bradykinin receptor = molecular target: T2, B2 bradykinin receptor (Homo sapiens, UniProt P30411); format: cell membranes, Membrane; conditions: chem-1; also: in other assays of this panel Not Active means under 50% inhibition at 10 µM
T2 sequence (P30411 whole entry): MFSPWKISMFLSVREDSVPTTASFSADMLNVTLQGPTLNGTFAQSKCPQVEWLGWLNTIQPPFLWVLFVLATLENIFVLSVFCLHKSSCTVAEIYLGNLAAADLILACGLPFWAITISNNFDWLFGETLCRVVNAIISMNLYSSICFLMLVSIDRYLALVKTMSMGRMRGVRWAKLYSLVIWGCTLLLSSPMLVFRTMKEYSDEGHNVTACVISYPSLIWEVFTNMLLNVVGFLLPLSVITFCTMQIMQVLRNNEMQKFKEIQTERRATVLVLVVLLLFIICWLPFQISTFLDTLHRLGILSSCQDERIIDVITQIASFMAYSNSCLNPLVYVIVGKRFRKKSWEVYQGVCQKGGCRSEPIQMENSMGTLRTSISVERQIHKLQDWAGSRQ

[3] = molecular target: Mitogen-activated protein kinase 3 (Homo sapiens, UniProt P27361); assay: DRUGMATRIX: Protein Serine/Threonine Kinase, ERK1 enzyme inhibition (substrate: Myelin Basic Protein); set-up: species or system Escherichia coli; conditions: Not Active = under 50% inhibition at 10 µM
[4] = DRUGMATRIX: Leukotriene, BLT (LTB4) radioligand binding (ligand: [3H]LTB4); format: cell membranes, Membrane; conditions: u-937; Not Active = under 50% inhibition at 10 µM
[5] = molecular target: Aldo-keto reductase family 1 member B1 (Rattus norvegicus, UniProt P07943); assay: biochemical; format: tissue-based, Lens of camera-type eye;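 also: inhibition of aldose reductase enzyme activity, measured with DL-glyceraldehyde as the substrate; in other assays of this panel Not Active means under 50% inhibition at 10 µM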
[6] = molecular target: T3, Angiotensin-converting enzyme (Oryctolagus cuniculus, UniProt P12822); format: tissue-based, Lung
T3 sequence (P12822 whole entry): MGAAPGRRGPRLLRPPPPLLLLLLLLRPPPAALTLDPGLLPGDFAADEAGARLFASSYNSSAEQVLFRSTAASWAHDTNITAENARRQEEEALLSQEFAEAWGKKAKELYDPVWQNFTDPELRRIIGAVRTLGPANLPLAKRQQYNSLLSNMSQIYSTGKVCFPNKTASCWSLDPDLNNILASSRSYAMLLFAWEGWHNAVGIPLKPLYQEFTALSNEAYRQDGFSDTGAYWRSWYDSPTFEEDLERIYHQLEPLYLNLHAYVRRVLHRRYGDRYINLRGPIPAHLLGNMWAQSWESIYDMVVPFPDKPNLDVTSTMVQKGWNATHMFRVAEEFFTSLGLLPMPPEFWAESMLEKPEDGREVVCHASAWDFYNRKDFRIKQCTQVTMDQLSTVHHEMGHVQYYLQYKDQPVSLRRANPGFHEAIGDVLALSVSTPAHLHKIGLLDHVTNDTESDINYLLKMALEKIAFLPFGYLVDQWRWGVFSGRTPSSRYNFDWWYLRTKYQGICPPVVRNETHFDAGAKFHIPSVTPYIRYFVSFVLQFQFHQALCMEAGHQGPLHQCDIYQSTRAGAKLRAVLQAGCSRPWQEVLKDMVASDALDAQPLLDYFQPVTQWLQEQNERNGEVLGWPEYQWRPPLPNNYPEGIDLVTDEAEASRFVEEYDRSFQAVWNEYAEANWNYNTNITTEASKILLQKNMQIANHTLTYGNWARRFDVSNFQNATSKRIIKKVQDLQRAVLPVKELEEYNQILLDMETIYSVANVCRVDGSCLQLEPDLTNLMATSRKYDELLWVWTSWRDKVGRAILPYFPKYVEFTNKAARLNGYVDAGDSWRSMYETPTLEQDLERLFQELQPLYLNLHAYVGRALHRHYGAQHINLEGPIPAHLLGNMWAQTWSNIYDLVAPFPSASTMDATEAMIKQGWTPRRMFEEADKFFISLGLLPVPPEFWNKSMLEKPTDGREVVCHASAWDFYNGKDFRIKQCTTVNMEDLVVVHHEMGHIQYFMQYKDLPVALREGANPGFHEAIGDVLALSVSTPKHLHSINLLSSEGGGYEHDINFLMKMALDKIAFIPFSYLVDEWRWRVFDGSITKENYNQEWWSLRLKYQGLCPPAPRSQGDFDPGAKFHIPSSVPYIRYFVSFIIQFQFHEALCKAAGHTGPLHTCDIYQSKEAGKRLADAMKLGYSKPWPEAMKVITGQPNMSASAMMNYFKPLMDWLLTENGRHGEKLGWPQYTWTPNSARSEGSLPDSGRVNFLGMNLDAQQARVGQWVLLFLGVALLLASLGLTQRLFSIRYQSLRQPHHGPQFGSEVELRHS

[7] = DRUGMATRIX: Sodium/nucleoside co-transporter radioligand binding (ligand: nitrobenzylthioinosine); format: cell membranes, Cavia porcellus, Dunkin-Hartley, Cerebral cortex, Membrane; conditions: Not Active = under 50% inhibition at 10 µM
[8] = molecular target: T4, C-C chemokine receptor type 4 (Homo sapiens, UniProt P51679); format: cell membranes, Membrane; conditions: chem-1; also: in other assays of this panel Not Active means under 50% inhibition at 10 µM
T4 sequence (P51679 whole entry): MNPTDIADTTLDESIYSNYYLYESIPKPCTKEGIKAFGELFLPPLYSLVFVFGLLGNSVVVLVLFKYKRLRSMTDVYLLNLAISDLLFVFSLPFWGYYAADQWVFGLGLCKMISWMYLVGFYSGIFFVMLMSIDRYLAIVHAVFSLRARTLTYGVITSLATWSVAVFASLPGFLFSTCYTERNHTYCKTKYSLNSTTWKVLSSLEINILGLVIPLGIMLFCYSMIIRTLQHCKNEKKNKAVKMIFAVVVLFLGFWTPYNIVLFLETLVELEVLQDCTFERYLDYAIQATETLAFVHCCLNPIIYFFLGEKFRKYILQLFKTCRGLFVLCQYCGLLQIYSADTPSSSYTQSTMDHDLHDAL

Mitogen-activated protein kinase 3, sequence (P27361 whole entry): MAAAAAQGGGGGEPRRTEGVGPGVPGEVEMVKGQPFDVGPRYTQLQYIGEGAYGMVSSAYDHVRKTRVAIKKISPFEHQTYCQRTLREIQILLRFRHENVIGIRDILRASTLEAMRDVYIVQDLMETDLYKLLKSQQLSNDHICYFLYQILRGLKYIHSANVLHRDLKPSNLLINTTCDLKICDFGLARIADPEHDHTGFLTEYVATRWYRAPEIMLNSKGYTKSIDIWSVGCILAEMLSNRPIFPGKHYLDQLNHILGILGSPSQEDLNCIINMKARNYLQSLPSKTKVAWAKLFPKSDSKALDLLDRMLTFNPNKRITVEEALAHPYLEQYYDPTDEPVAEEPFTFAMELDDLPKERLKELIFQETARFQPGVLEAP
Platelet-activating factor receptor, sequence (P25105 whole entry): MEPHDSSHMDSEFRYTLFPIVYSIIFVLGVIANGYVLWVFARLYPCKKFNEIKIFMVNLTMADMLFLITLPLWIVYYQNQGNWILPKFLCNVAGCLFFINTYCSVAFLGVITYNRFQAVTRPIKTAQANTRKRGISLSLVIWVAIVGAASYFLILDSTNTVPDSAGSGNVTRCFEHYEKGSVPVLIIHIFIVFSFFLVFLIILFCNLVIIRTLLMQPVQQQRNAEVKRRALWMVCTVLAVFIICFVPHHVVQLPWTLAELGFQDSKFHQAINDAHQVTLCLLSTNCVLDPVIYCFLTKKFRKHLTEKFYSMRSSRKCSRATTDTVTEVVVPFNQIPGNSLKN

ClC(Cl)Cl [CHLOROFORM]
Not Active: IC50 [1] | IC50 [2] | IC50 (B2 bradykinin receptor) | IC50 [3] | IC50 [4] | Ki [4] | IC50 [5] | IC50 [6] | IC50 [7] | Ki [7] | IC50 [8]

C=C1CC[C@H](O)C/C1=C/C=C1\CCC[C@]2(C)[C@@H]([C@H](C)CCCC(C)C)CC[C@@H]12 [CHOLECALCIFEROL]
Not Active: IC50 [1] | IC50 [2] | IC50 (B2 bradykinin receptor) | IC50 [3] | IC50 [4] | Ki [4] | IC50 [5] | IC50 [6] | IC50 [7] | Ki [7] | IC50 [8]

C[N+](C)(C)CCO.[Cl-] [CHOLINE CHLORIDE]
Not Active: IC50 [1] | IC50 [2] | IC50 (B2 bradykinin receptor) | IC50 [3] | IC50 [4] | Ki [4] | IC50 [5] | IC50 [6] | IC50 [7] | Ki [7] | IC50 [8]

CCOC(=O)C(C)(C)Oc1ccc(Cl)cc1 [CLOFIBRATE]
Not Active: IC50 [1] | IC50 [2] | IC50 (B2 bradykinin receptor) | IC50 [3] | IC50 [4] | Ki [4] | IC50 [5] | IC50 [6] | IC50 [7] | Ki [7] | IC50 [8]

CC(=O)OCC(=O)[C@@]1(O)CC[C@H]2[C@@H]3CCC4=CC(=O)CC[C@]4(C)[C@H]3C(=O)C[C@@]21C [CORTISONE ACETATE]
Not Active: IC50 [1] | IC50 [2] | IC50 (B2 bradykinin receptor) | IC50 [3] | IC50 [4] | Ki [4] | IC50 [5] | IC50 [6] | IC50 [7] | Ki [7] | IC50 [8]

O=c1ccc2ccccc2o1 [COUMARIN]
Not Active: IC50 [1] | IC50 [2] | IC50 (B2 bradykinin receptor) | IC50 [3] | IC50 [4] | Ki [4] | IC50 [5] | IC50 [6] | IC50 [7] | Ki [7] | IC50 [8]

C[C@@H]1C[C@@H]([C@H](O)CC2CC(=O)NC(=O)C2)C(=O)[C@@H](C)C1 [CYCLOHEXIMIDE]
Not Active: IC50 [1] | IC50 [2] | IC50 (B2 bradykinin receptor) | IC50 [3] | IC50 [4] | Ki [4] | IC50 [5] | IC50 [6] | IC50 [7] | Ki [7] | IC50 [8]

C/C=C/C[C@@H](C)[C@@H](O)[C@H]1C(=O)N[C@@H](CC)C(=O)N(C)CC(=O)N(C)[C@@H](CC(C)C)C(=O)N[C@@H](C(C)C)C(=O)N(C)[C@@H](CC(C)C)C(=O)N[C@@H](C)C(=O)N[C@H](C)C(=O)N(C)[C@@H](CC(C)C)C(=O)N(C)[C@@H](CC(C)C)C(=O)N(C)[C@@H](C(C)C)C(=O)N1C [CYCLOSPORINE]
Not Active: IC50 [1] | IC50 [2] | IC50 (B2 bradykinin receptor) | IC50 [3] | IC50 [4] | Ki [4] | IC50 [5] | IC50 [6] | IC50 [7] | Ki [7] | IC50 [8]

CN(C)/N=N/c1[nH]cnc1C(N)=O [DACARBAZINE]
Not Active: IC50 [1] | IC50 [2] | IC50 (B2 bradykinin receptor) | IC50 [3] | IC50 [4] | Ki [4] | IC50 [5] | IC50 [6] | IC50 [7] | Ki [7] | IC50 [8]

COc1ccc2c(c1)[C@]13CCCC[C@@H]1[C@H](C2)N(C)CC3 [DEXTROMETHORPHAN]
Not Active: IC50 [1] | IC50 [2] | IC50 (B2 bradykinin receptor) | IC50 [3] | IC50 [4] | Ki [4] | IC50 [5] | IC50 [6] | IC50 [7] | Ki [7] | IC50 [8]

CC(=O)Nc1c(I)c(NC(C)=O)c(I)c(C(=O)O)c1I [DIATRIZOIC ACID]
Not Active: IC50 [1] | IC50 [2] | IC50 (B2 bradykinin receptor) | IC50 [3] | IC50 [4] | Ki [4] | IC50 [5] | IC50 [6] | IC50 [7] | Ki [7] | IC50 [8]
